From PubChem BioAssay AID463199 (Broad Institute, 2010)
The source made the active and inactive calls.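 The calls were made as follows: active = AC50, the dose giving half-maximal effect, exceeds a fixed cutoff for a compound that rescues yeast growth under heat; inactive = the rest, inconclusive results apart.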

Each compound was assayed on S. cerevisiae Burl-1 ts mutant growth, BacTiter-Glo, 38.5C 24 h (assay: restored growth of temperature-sensitive Burl-1 yeast – whole organism, S. cerevisiae, Burl-1 ts mutant, luminescence, counter-screen for SUMOylation pathway inhibitor project, dose response (AID 463199)).

Row | Compound | AC50
1 | COc1cc(C(=O)NCCC2=CCCCC2)cc(OC)c1OC | > 42 µM (inactive)
2 | CS(=O)(=O)c1ccc(Cl)c(NC(=O)c2ccc3ccccc3c2)c1 | > 42 µM (inactive)
3 | CCC(C)(C)n1nnnc1C(c1cccnc1)N1CCC(Cc2ccccc2)CC1 (stereo unspecified) | > 42 µM (inactive)
4 | NC(=O)c1nsc(C(=O)N(Cc2ccc(F)cc2)C(C(=O)NC2CCCC2)c2ccco2)c1N (stereo unspecified) | > 42 µM (inactive)
5 | COC(=O)c1ccccc1N(C)S(C)(=O)=O | > 42 µM (inactive)
6 | Cc1cc(OCC(=O)NCC2CCC(C(=O)O)CC2)c2c(C)c(C)c(=O)oc2c1 (stereo unspecified) | > 42 µM (inactive)
7 | CCOc1ccccc1NC(=O)c1ccc2c(c1)C(=O)N(CC(C)C)C2=O | > 42 µM (inactive)
8 | Cc1nc2ccc(NC(=O)c3ccc(S(=O)(=O)N4CCOCC4)cc3)cc2s1 | > 42 µM (inactive)
9 | Cc1ccc(OCC(=O)NN2C(=O)c3ccccc3C2=O)c(C)c1 | > 42 µM (inactive)
10 | O=S(=O)(NCC1CCCO1)c1cc(Cl)ccc1Br (stereo unspecified) | > 42 µM (inactive)
11 | COc1cccc(NC(=O)CN(C)C(=O)c2ccccc2OCc2c(C)noc2C)c1 | > 42 µM (inactive)
12 | COc1ccc(NC(=O)C(c2ccccc2)N2CCN(c3ccccn3)CC2)cc1Cl (stereo unspecified) | > 42 µM (inactive)
13 | Cc1ccc(C)c(NC(=S)NC(=O)c2cncc(Br)c2)c1 | > 42 µM (inactive)
14 | Cc1ccc(NC(=O)Nc2cccc(C(F)(F)F)c2)nc1 | > 42 µM (inactive)
15 | COc1ccc(-c2cc(C(=O)Nc3cc(C)ccc3O)no2)cc1 | > 42 µM (inactive)
16 | Cc1ccc(-c2[nH]ncc2CNCCc2cnn(-c3ccccc3)c2)cc1C | > 42 µM (inactive)
17 | O=C(NCCc1cnccn1)C1CCC(=O)N(Cc2ccc(Cl)cc2)C1 (stereo unspecified) | > 42 µM (inactive)
18 | CC1(C)CCC(=O)N2CC[C@H]3C[C@H](OC(=O)Nc4ccc(Br)cc4)C[C@@H]1[C@H]32 | > 42 µM (inactive)
19 | COCCn1c(=NC(=O)c2ccc(S(=O)(=O)N3CCOCC3)cc2)sc2cc(S(N)(=O)=O)ccc21 | > 42 µM (inactive)
20 | Cc1ccc(S(=O)(=O)NCCS(=O)(=O)N2CCN(c3ccc(F)cc3)CC2)cc1 | > 42 µM (inactive)
21 | Cc1ccc(-n2c(SCC(=O)N(C)C3CCS(=O)(=O)C3)nc3ccccc3c2=O)cc1 (stereo unspecified) | > 42 µM (inactive)
22 | O=C(C1CCC(CNc2c(N3CCCCC3)c(=O)c2=O)CC1)N1CCN(C2CCCCC2)CC1 (stereo unspecified) | > 42 µM (inactive)
23 | CCN1C(=S)N[C@@H](CCc2ccccc2)C(C(=O)OC)=C1C | > 42 µM (inactive)
24 | C=CCNC(=O)c1onc(CSc2cccc(C)c2)c1C(=O)O | > 42 µM (inactive)

Row | Compound | AC50
25 | CS(=O)(=O)N(CCc1ccccc1)CC(=O)NCc1cccnc1 | > 42 µM (inactive)
26 | CCOC(=O)c1ccc(NC(=O)c2c(NC(=O)CCC(=O)O)sc3c2CCCCC3)cc1 | > 42 µM (inactive)
27 | CCn1cc(C(=O)N(C)c2ccc(OC)cc2OC)c2cc(OC)c(OC)cc2c1=O | > 42 µM (inactive)
28 | Cc1noc(C)c1Cc1ccc(O)cc1 | > 42 µM (inactive)
29 | CC(NC(=O)OCc1ccccc1)C(=O)N1CC(O)CC1C(=O)O (stereo unspecified) | > 21 µM (inactive)
30 | CCOC(=O)C1(Cc2cccc(F)c2)CCN(C(=O)c2cnccn2)CC1 | > 42 µM (inactive)
31 | Cc1cc(C(=O)OCC(=O)Nc2cccc(S(N)(=O)=O)c2)c2ccccc2n1 | > 42 µM (inactive)
32 | CCCCC1=CC2=CC(=O)C(C)(OC(=O)CC)C(=O)C2=CN1CCc1ccc(Br)cc1 (stereo unspecified) | > 42 µM (inactive)
33 | Clc1ccc(CN(Cc2ccccc2)C(c2cccs2)c2nnnn2C2CCCC2)cc1 (stereo unspecified) | > 42 µM (inactive)
34 | CCn1c(SCC(N)=O)nnc1-c1cc2c(C)nn(-c3ccccc3)c2s1 | > 42 µM (inactive)
35 | Cc1ccc(NC(=O)COC(=O)c2csc3c2CCC(C)C3)cc1S(=O)(=O)N1CCCCC1 (stereo unspecified) | > 42 µM (inactive)
36 | CCOC(=O)c1sc(N/N=C/c2ccc(N(C)C)cc2)nc1C | > 42 µM (inactive)
37 | COc1ccccc1CC(=O)N1CCN(S(=O)(=O)c2ccccc2)CC1 | > 42 µM (inactive)
38 | CCCCCCCCCCOC(=O)Cn1c(COc2ccc(OC)cc2)[n+](C)c2ccccc21 | > 42 µM (inactive)
39 | CC1CN=C(NCc2ccccc2)S1 (stereo unspecified) | > 42 µM (inactive)
40 | Cc1ccc(-c2csc(C3=C(O)CN(NC(=O)c4ccco4)C3=N)n2)cc1 | > 42 µM (inactive)
41 | Cc1ccc(-c2cc(C(=O)O)c3ccccc3n2)s1 | > 42 µM (inactive)
42 | Cc1cc(S(=O)(=O)N2CCCC(N3CCOCC3)C2)c(C)cc1Cl (stereo unspecified) | > 42 µM (inactive)
43 | NS(=O)(=O)c1ccc(CCNC(=O)c2ccc([N+](=O)[O-])s2)cc1 | > 42 µM (inactive)
44 | O=C(N/N=C/C(Br)=C/c1ccccc1)c1cccnc1 | > 42 µM (inactive)
45 | O=C(c1ccc2c(=O)n(Cc3ccccc3Cl)c(=S)[nH]c2c1)N1CCOCC1 | > 42 µM (inactive)
46 | Cc1ccc(-c2nn(-c3ccccc3)cc2C(=O)N2CCN(c3ccccn3)CC2)cc1 | > 42 µM (inactive)
47 | COc1ccc(/C=C(\C#N)C(=O)NCCCn2ccnc2)cc1 | > 42 µM (inactive)
48 | Cc1ccc2cccc(OCc3nnc(SCC(=O)O)n3C)c2n1 | > 42 µM (inactive)

Row | Compound | AC50
49 | CN(C(=O)C1CCCO1)c1nnc(-c2cnccn2)s1 (stereo unspecified) | > 42 µM (inactive)
50 | CS(=O)(=O)N1CCC(Oc2ccccc2C(=O)N2CCNC(=O)C2)CC1 | > 42 µM (inactive)
51 | Cn1c(NCc2ccco2)nc2c1c(=O)n(Cc1ccc(Cl)cc1)c(=O)n2C | > 42 µM (inactive)
52 | CC1(C)CC(=O)C(C=Nc2ccc(O)c(N=CC3=C(O)CC(C)(C)CC3=O)c2)=C(O)C1 | > 42 µM (inactive)
53 | Oc1c(Cl)cc(Cl)c(Cl)c1Cc1c(O)c(Cl)cc(Cl)c1Cl | > 42 µM (inactive)
54 | O=C(O)C1C2CCC(O2)C1C(=O)NCCC1=CCCCC1 (stereo unspecified) | 13.6 µM
55 | N#CC(C#N)=CN=c1ccn(Cc2ccc(Cl)cc2Cl)cc1 | > 42 µM (inactive)
56 | O=C(CSc1nnc(-c2cccs2)n1-c1ccccc1)c1ccc2c(c1)OCCO2 | > 42 µM (inactive)
57 | N#CCSc1nc2c(c(C3CC=CCC3)c1C#N)CCC2 (stereo unspecified) | > 42 µM (inactive)
58 | Cc1[nH]c(C)c(S(=O)(=O)NCC(C)c2ccccc2)c1C(=O)N1CCCCC1 (stereo unspecified) | > 42 µM (inactive)
59 | CCN(Cc1ccccc1)Cc1ccc(OCc2ccccc2)c(OC)c1 | > 42 µM (inactive)
60 | O=C(CCCc1nc(-c2ccc(Cl)cc2)no1)NC1CCCCC1 | > 42 µM (inactive)
61 | O=c1cnc2ccccc2n1Cc1ccccc1C(F)(F)F | > 42 µM (inactive)
62 | O=C(C1CCN(S(=O)(=O)N2CCC3(CC2)OCCO3)CC1)N1CCC(Cc2ccccc2)CC1 | > 42 µM (inactive)
63 | COC(=O)CCC(=O)OC1(C)C(=O)C2=CN(CCc3c[nH]c4ccccc34)C(c3ccc(OC)cc3)=CC2=C(Br)C1=O (stereo unspecified) | > 42 µM (inactive)
64 | CCC(NC(=O)c1ccccc1NC(=O)c1ccco1)C(=O)NC1CCCCC1 (stereo unspecified) | > 42 µM (inactive)
65 | Nn1c(SCc2cc([N+](=O)[O-])cc3c2OCOC3)nnc1-c1ccccn1 | > 42 µM (inactive)
66 | S=c1[nH]nc(-c2ccco2)n1-c1ccc(Br)cc1 | > 42 µM (inactive)
67 | C=C(C)C(=O)OC1(C(F)(F)F)Oc2cc(C)ccc2NC1=O (stereo unspecified) | > 42 µM (inactive)
68 | CCOC(=O)N1CCN(C(=O)c2ccc(OC)c(OC)c2)CC1 | > 42 µM (inactive)
69 | O=C1CN(C(=O)COC(=O)c2cccc(S(=O)(=O)NCc3ccccc3)c2)c2ccccc2N1 | > 42 µM (inactive)
70 | Fc1ccc(-c2n[nH]c(=S)n2CC2CCCO2)cc1 (stereo unspecified) | > 42 µM (inactive)
71 | Cc1ccc(C(=O)NCC(=O)Nc2ccc3c(c2)OCCO3)cc1 | 18.5 µM
72 | CCOC(=O)c1sc2ncnc(N3CCN(c4ccc(OC)cc4)CC3)c2c1C | > 42 µM (inactive)

Row | Compound | AC50
73 | Cc1nn(C)c(C)c1/C=N/NC(=O)C(C)(C)Oc1ccc(Cl)cc1 | > 42 µM (inactive)
74 | Cc1nc(NCCN2CCOCC2)c2nnn(Cc3c(F)cccc3Cl)c2n1 | > 42 µM (inactive)
75 | Cc1ccc(S(=O)(=O)n2cccc2C)cc1 | > 42 µM (inactive)
76 | COc1cc([N+](=O)[O-])cc(/C=N/NC(=O)c2cc(C)nc3ccccc23)c1O | > 42 µM (inactive)
77 | CCn1c(C)c(C(C)=O)c(N2CCN(c3ccc(F)cc3)CC2)nc1=S | > 42 µM (inactive)
78 | C[C@@]12C(=O)Nc3cc(Cl)ccc3C(=O)N1[C@H]1c3ccccc3OC[C@@H]1[C@@H]2c1ccccc1 | > 42 µM (inactive)
79 | Cc1cc(C)cc(N(CC(=O)Nc2cccc(C)n2)S(=O)(=O)c2c(C)noc2C)c1 | > 42 µM (inactive)
80 | CCN(CC)CCNC(=O)CCn1c(=S)[nH]c2cc3c(cc2c1=O)OCO3 | > 42 µM (inactive)
81 | CCc1nc2ccc(C(=O)N3CCN(CC)CC3)cc2nc1CC | > 42 µM (inactive)
82 | O=C(COc1cccc2cccnc12)N1CCc2ccccc21 | > 42 µM (inactive)
83 | O=S(=O)(c1ccccc1)N1CCN(c2nc3ccccc3s2)CC1 | > 42 µM (inactive)
84 | CC(C)C(NC(=S)Nc1ccccc1)C(=O)O (stereo unspecified) | > 42 µM (inactive)
85 | CCC(c1nnnn1C1CCCC1)N1CCN(c2cccc(OC)c2)CC1 (stereo unspecified) | > 21 µM (inactive)
86 | COc1ccc(C(C)=O)cc1CN(c1ccccc1OC)S(=O)(=O)c1cccs1 | > 42 µM (inactive)
87 | Cc1ccc(NC(=O)C(CC(C)C)NC(=O)C2CCC(C)CC2)nc1 (stereo unspecified) | > 42 µM (inactive)
88 | Cc1ccc(CNC(=O)c2ccc(N3CCC4(CC3)CC(c3ccccc3)=NO4)c(NC(=O)c3cccc(C)c3)c2)cc1 | > 42 µM (inactive)
89 | COc1ccccc1N1CCN(C(=O)c2sc3ncnc(N4CCN(c5ccccn5)CC4)c3c2C)CC1 | > 42 µM (inactive)
90 | CC1CN(C(=O)c2cc([N+](=O)[O-])cc([N+](=O)[O-])c2)CC(C)O1 (stereo unspecified) | > 42 µM (inactive)
91 | COc1ccc(-c2noc(CSc3nc(-c4ccccc4)cc(=O)[nH]3)n2)cc1OC | > 42 µM (inactive)
92 | COc1cccc(NC(=O)CNC(=O)c2ccc(C)cc2)c1 | > 42 µM (inactive)
93 | O=C(OCc1nnc(-c2ccccc2)o1)c1ccc([N+](=O)[O-])o1 | > 42 µM (inactive)
94 | CCc1ccc(NC(=O)N2CCC(c3ccccc3)C2)cc1 (stereo unspecified) | > 42 µM (inactive)
95 | CC(=O)Nc1cccc(OCC(O)Cn2c(C)nc3ccccc32)c1 (stereo unspecified) | > 42 µM (inactive)
96 | CCOc1ccc(OCC)c(NC(=O)C2COc3ccccc3O2)c1 (stereo unspecified) | > 42 µM (inactive)
